Results: patent US7172879B2, “Detection of sphingosine kinase activity and sphingosine kinase agonist or antagonist activity” (Johnson & Johnson Pharmaceutical Research & Development LLP, priority 1997, dated 2007)

Experiments:
Format in all cases: cell-based, human
ERK = ERK activity in HUVECs, immunoprecipitation and MBP substrate; conditions: for stimulation of ERK activities: 30 min treatment
Description: After the cells were treated with an agent for 30 min, ERK activities were assayed with […] basic protein (MBP) as substrate after immunoprecipitation with antibodies against p42/p44^MAPK (Berra et al. 1995; Li et al., 1996; Lee et al., 1997). The kinase reaction products were separated on 10% SDS-polyacrylamide gels. Bar graph depicting ERK activities were quantified by Phosphoimager. NF-κB binding activity was measured by electrophoretic mobility shift assay after 30 min treatment as indicated.

E-selectin = test: Cell-surface expression of E-selectin by HUVECs, flow cytometry
Description: (§1) Confluent monolayers of HUVECs were preincubated with or without HDL that was isolated as the fraction of density 1.13˜1.21 g/ml from human plasma at a concentration of 1 mg/ml of apoA-1. After 16-h preincubation, the cells were treated with TNFα (100 U/ml). Following 4-h treatment of TNFα, the cell-surface expression of VCAM-1 and E-selectin was measured by using flow cytometry.
(§2) HUVECs were treated with an increasing concentration of C2-ceramide with or without TNF α(100 U/ml), or an increasing concentration of Sph-1-P for 4 h. The cell-surface expression of VCAM-1 or E-selectin was measured by flow cytometry. Effect of sphingosine kinase inhibitor (DMS) on the expression of VCAM-1 and E-selectin. The cells were treated with a vehicle (Nil), DMS (5 μM), Sph-1-P (5 μM), C2-ceramide (10 μM) or TNFα (100 U/ml) for 4 h, then measure VCAM-1 or E-selectin expression. Effect of agents on E-selectin mRNA levels and the comparison between the effect of HDL and DMS. After the indicated treatment for 4 h, E-selectin mRNA levels were measured by Northern blotting assay. Results shown in (D) are representative of three similar experiments.

VCAM-1 = test: Cell-surface expression of VCAM-1 by HUVECs, flow cytometry
Description: as §1, §2

E-selectin mRNA = E-selectin mRNA levels in HUVECs, Northern blotting; conditions: 4 h treatment
Description: as §2
Total RNA was prepared from HUVECs that was treated with the indicated agents for 4 h. Equal aliquots of total RNA (12 μg) were electrophoresed in a 1% formaldehyde gel and transferred to nylon membrane. The blots were hybridized with α^=P-labeled E-selection cDNA probe. The mRNA levels of E-selectin were quantified by Phosphoimager and normalised to radiolabeled GAPDH probe.

NF-κB = NF-κB binding activity in HUVEC nuclear extracts, electrophoretic mobility shift assay; conditions: HUVECs, 30 min treatment
Description: After the cells were treated with an agent for 30 min, ERK activities were assayed with mycline basic protein (MBP) as substrate after immunoprecipitation with antibodies against p42/p44^MAPK (Berra et al. 1995; Li et al., 1996; Lee et al., 1997). The kinase reaction products were separated on 10% SDS-polyacrylamide gels. Bar graph depicting ERK activities were quantified by Phosphoimager. NF-κB binding activity was measured by electrophoretic mobility shift assay after 30 min treatment as indicated. The specific NF-κB binding complexes were identified by the super-shift gel assay with anti-p50 and anti-p65 antibodies and by competition analyses with the addition of a 50-fold molar excess of unlabelled NF-κB oligonucleotides.
To measure the NF-κB binding activity, electrophoretic mobility-shift assays were performed. Nuclear extracts were prepared from HUVECs treated for 30 min with vehicle or the indicated agents. The double-stranded oligonucleotides used as a probe in these experiements included 5′-[…]-3′ (SEQ ID NO: 1) which contains a consensus NF-κB binding site in E-selection promoter that is underlined. Gel mobility shift of a consensus NF-κB oligonucleotide was performed by incubating ^32P-labelled NF-κB probe with […] of nuclear proteins. The Sph-1-P induced formation of NF-κB specific complexes were similar us that induced by TNFα. […]

Sph-1-P formation = Sph-1-P formation in permeabilized HUVECs; conditions: endothelial cells; same concentration of DMS (5 μM)
Description: (§3) HUVECs were labelled with [^3H]sphingomyelin was measured at the desired time point of TNFα treatment. The unlabelled cells were treated with HDL and/or TNFα as indicated, cells were lysed to measure ceramide levels and sphingosine kinase activity, respectively. The cells were permeabilized to measure the production of Sph-1-P in vivo.
(§4) To measure sphingomyelin, the HUVECs were labeled with [^3H]serine (5 μCi/ml) for 48 h and preincubated with or without HDL for another 6 h. The cells were then washed three times and incubated for additional 2 h in the presence or absence of HDL. […] Sphingomyelin spots were visualized by fluorography, quantitated by scintillation spectrometry, and normalized by radioactivity recovered in total cellular lipids. […] To measure ceramide levels, cellular ceramide was extracted and quantified with the diacylglycerol kinase reaction (Kolesnick, 1991; Hannun & Bell, 1993). Sphingosine kinase activity was measured in vitro as previously described with some modification (Mattie et al., 1994; Ghosh et al., 1994; Choi et al., 1996). […] Sphingosine kinase activity was measured by incubating the supernatant with […] sphingosine-BSA complex and [γ^32P]ATP (1 mM, 5 μCi/ml) for 15 min at 37° C. […] Radioactivity of the spot corresponding to Sph-1-P was quantified using Phosphoimager system. […]

sphingosine kinase = test: Sphingosine kinase activity in cytosolic fractions of treated HUVECs
Description: as §3, §4

ceramide = test: Cellular ceramide levels in HUVECs, diacylglycerol kinase reaction; conditions: peak at 30 min after TNFα treatment
Description: as §3, §4

sphingomyelin = test: Sphingomyelin hydrolysis in labelled HUVECs; conditions: within 30 min of TNFα stimulation
Description: as §3, §4

[1] = HUVECs, TNFα 100 U/ml, 4 h, flow cytometry
[2] = at 51 μM, compared with 100 U/ml TNF-α

Q: For `CCCCCCCCCCCCC/C=C/[C@@H](O)[C@H](CO)NC(C)=O` [C2-ceramide], which “stimulation of ERK activities” value (ERK) is on record?
A: did not

Q: What about the “inhibition of TNFα-induced expression of E-selectin” value (E-selectin; [1]) of the same molecule?
A: > 60%

Q: And the “inhibition of TNFα-induced expression of VCAM-1” value (VCAM-1; [1])?
A: > 60%

Q: Which results are given for `CCCCCCCCCCCCC/C=C/[C@@H](O)[C@@H](N)COP(=O)(O)O` [Sph-1-P, sphingosine-1-phosphate]?
A: stimulation of ERK activities (ERK): approximately equipotent; induction of E-selectin mRNA (E-selectin mRNA): induction of E-selectin mRNA; induction of E-selectin, level reached (E-selectin; [2]): approximately equivalent to 100 U/ml TNF-α; induction of nuclear NF-κB accumulation (NF-κB): significant nuclear NF-κB accumulation; induction of VCAM-1, level reached (VCAM-1; [2]): approximately equivalent to 100 U/ml TNF-α

Q: Which “inhibition of Sph-1-P formation induced either by TNF-α or PMA” value (Sph-1-P formation) does the source give for N,N-dimethylsphingosine [DMS] here?
A: > 90%

Q: What about the “inhibition of TNFα-activated ERK” value (ERK; 30 min, p<0.02) of the same molecule?
A: 50%

Q: What about the “inhibition of sphingosine kinase activity induced either by TNF-α or PMA” value (sphingosine kinase; endothelial cells, same concentration of DMS (5 μM)) of the same molecule?
A: > 90%

Q: What about the “effect on Sph-1-P induced adhesion protein expression (E-selectin)” value (E-selectin; HUVECs, Sph-1-P 5 μM, 4 h) of the same molecule?
A: did not prevent

Q: What about the “inhibition of Sph-1-P induced activation of NF-κB” value (NF-κB) of the same molecule?
A: did not inhibit

Q: What about the “effect on Sph-1-P induced adhesion protein expression (VCAM-1)” value (VCAM-1; HUVECs, Sph-1-P 5 μM, 4 h) of the same molecule?
A: did not prevent

Q: Which “increase of cellular ceramide levels” value (ceramide) does the source give for TNFα here?
A: approximately 2 fold

Q: What about the “stimulation of ERK activities” value (ERK) of the same molecule?
A: approximately equipotent

Q: What about the “cytosolic sphingosine kinase activity, maximum, % of basal” value (sphingosine kinase; HUVECs, within 5 min, p<0.01) of the same molecule?
A: 165±13%

Q: And the “cellular sphingomyelin content, % of control” value (sphingomyelin)?
A: 40%
